Experimental findings from the supplement of paper PMC11208160 are described below.
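Further: IS621 bridge recombinase in Escherichia coli cells against a fixed T5 target plasmid.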

A short description of the series: recombinant UMI read abundance after kanamycin selection (control-corrected) (log10(CPM+1)); higher = more efficient recombination; extreme values may be limits of the assay; sequences stand for … in AGTGCAGAGAAAATCGGCCAGTTTTCTCTGCCTGCAGTCCGCATGCCGTGGGACCCCTTGGGTTCTAACCTGTTGCCTAGATTTATGCAGCGGACTGCCTTTCTCCCAAAGTGATAAACCGG…AGGTTGGTTTCACT; site = the 11-nt donor. How it is done:
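Pooled E. coli donor-specificity screen for the IS621 bridge recombinase. Each library member carries a reprogrammed 11-nt donor and a full-length LE bridge RNA expressed in cis from the natural promoter, with a paired donor-binding loop (8-nt LDG + 4-nt RDG) and a target-binding loop fixed to T5. It is co-electroporated with a T5 target plasmid; recombinase is induced with 0.07 mM IPTG and recombinants are selected on kanamycin. UMIs are counted as CPM, averaged over two biological replicates and corrected by the unselected control. Molecule = full bridge RNA written as DNA, built from the T5 scaffold: LDG = donor specificity nt 1-8, RDG = reverse complement of nt 8-11.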
In the case of “ACAGTATCATGGACCGGTTTTCCCGGTAATCCGTATTTGCA (site GCAGTATCTTG)”, the “recombinant UMI read abundance (log10)” value was found to be 2.41. As for “ACAGTATCATGGACCGGTTTTCCCGGTAATCCGTATTTGCA (site GCAGTCTCTTG)”, the figure is 0.292; as for “ACAGTATCATGGACCGGTTTTCCCGGTAATCCGTATTTGCA (site GCCGTATCTTG)”, 1.88; as for “ACAGTATCATGGACCGGTTTTCCCGGTAATCCGTATTTGCA (site TCACTATCTTG)”, 0.822. As for “ACAGTATCATGGACCGGTTTTCCCGGTAATCCGTATTTGCA (site TCAGCATCTTG)”, the figure is 2.37. As for “ACAGTATCATGGACCGGTTTTCCCGGTAATCCGTATTTGCA (site TCAGTAGCTTG)”, the figure is 0.0987; as for “ACAGTATCATGGACCGGTTTTCCCGGTAATCCGTATTTGCA (site TCAGTATCTCG)”, 0.00474; as for “ACAGTATCATGGACCGGTTTTCCCGGTAATCCGTATTTGCA (site TCAGTATCTTA)”, 0. On to “ACAGTATCATGGACCGGTTTTCCCGGTAATCCGTATTTGCA (site TCAGTATCTTG)”, for which the “recombinant UMI read abundance (log10)” value was 2.54. For “ACAGTATCATGGACCGGTTTTCCCGGTAATCCGTATTTGCA (site TCAGTTTCTTG)”, the “recombinant UMI read abundance (log10)” value came out at 1.26. As for “ACAGTATCATGGACCGGTTTTCCCGGTAATCCGTATTTGCA (site TCGGTATCTTG)”, the “recombinant UMI read abundance (log10)” value worked out at 0.0345. As for “ACAGTATCATGGACCGGTTTTCCCGGTAATCCGTATTTGCA (site TTAGTATCTTG)”, the figure is 2.66; as for “ACAGTATCATGGACCGGTTTTCCCGGTAATCCGTATTTGGT (site ACAGTATCTAC)”, 2.61; as for “ACAGTATCATGGACCGGTTTTCCCGGTAATCCGTATTTGGT (site ACAGTATCTTG)”, 0.731. The same measure for “ACAGTCACATGGACCGGTTTTCCCGGTAATCCGTATTTGCA (site ACAGTATCTTG)”: 1.84. Turning to “ACAGTCACATGGACCGGTTTTCCCGGTAATCCGTATTTGCA (site ACAGTCACTTG)”, the “recombinant UMI read abundance (log10)” value stood at 2.58.

Turning to “ACAGTCTCATGGACCGGTTTTCCCGGTAATCCGTATTTGCA (site ACAGTATCTTG)”, the “recombinant UMI read abundance (log10)” value was determined as 2.26. As for “ACAGTCTCATGGACCGGTTTTCCCGGTAATCCGTATTTGCA (site ACAGTCTCTTG)”, the figure is 3.22; as for “ACAGTCTCATGGACCGGTTTTCCCGGTAATCCGTATTTGCA (site ACAGTGTCTTG)”, 2.28; as for “ACAGTCTCATGGACCGGTTTTCCCGGTAATCCGTATTTGCA (site ACAGTTTCTTG)”, 0.155. The same measure for “ACAGTCTCATGGACCGGTTTTCCCGGTAATCCGTATTTGCT (site ACAGTATCTTG)”: 0; for “ACAGTCTCATGGACCGGTTTTCCCGGTAATCCGTATTTGCT (site ACAGTCTCTAG)”: 2.94; for “ACAGTGCCATGGACCGGTTTTCCCGGTAATCCGTATTTGAG (site ACAGTGCCTCT)”: 0.285. As for “ACAGTGCCATGGACCGGTTTTCCCGGTAATCCGTATTTGCA (site ACAGTATCTTG)”, the figure is 0.852; as for “ACAGTGCCATGGACCGGTTTTCCCGGTAATCCGTATTTGCA (site ACAGTGCCTTG)”, 1.38. As to “ACAGTGTCATGGACCGGTTTTCCCGGTAATCCGTATTTGCA (site ACAGTATCTTG)”, the “recombinant UMI read abundance (log10)” value was 3.35. As to “ACAGTGTCATGGACCGGTTTTCCCGGTAATCCGTATTTGCA (site ACAGTCTCTTG)”, the “recombinant UMI read abundance (log10)” value was 2. For the sequence “ACAGTGTCATGGACCGGTTTTCCCGGTAATCCGTATTTGCA (site ACAGTGTCTTG)”, the “recombinant UMI read abundance (log10)” value came to 3.29. For “ACAGTGTCATGGACCGGTTTTCCCGGTAATCCGTATTTGCA (site ACAGTTTCTTG)”, the “recombinant UMI read abundance (log10)” value was determined as 0.818.

As for “ACAGTTTCATGGACCGGTTTTCCCGGTAATCCGTATTTGCG (site ACAGTATCTTG)”, the “recombinant UMI read abundance (log10)” value was 0. The same measure for “ACAGTTTCATGGACCGGTTTTCCCGGTAATCCGTATTTGCG (site ACAGTTTCTCG)”: 2.64.

Consider “ACATACACATGGACCGGTTTTCCCGGTAATCCGTATTTGAG (site ACATACACTCT)”, for which the “recombinant UMI read abundance (log10)” value was determined as 1.79. The same measure for “ACATACTCATGGACCGGTTTTCCCGGTAATCCGTATTTGCA (site ACATACTCTTG)”: 2.8; for “ACATACTCATGGACCGGTTTTCCCGGTAATCCGTATTTGCA (site CCATACTCTTG)”: 2.69; for “ACATACTCATGGACCGGTTTTCCCGGTAATCCGTATTTGCA (site GCATACTCTTG)”: 2.66. The same measure for “ACATACTCATGGACCGGTTTTCCCGGTAATCCGTATTTGCA (site TCATACTCTTG)”: 2.8; for “ACATCTACATGGACCGGTTTTCCCGGTAATCCGTATTTGTC (site ACATCTACTAA)”: 0.0236. As for “ACATCTACATGGACCGGTTTTCCCGGTAATCCGTATTTGTC (site ACATCTACTCA)”, the figure is 0.0109; as for “ACATCTACATGGACCGGTTTTCCCGGTAATCCGTATTTGTC (site ACATCTACTGA)”, 0; as for “ACATCTACATGGACCGGTTTTCCCGGTAATCCGTATTTGTC (site ACATCTACTTA)”, 0.0124. Consider “ACATCTACATGGACCGGTTTTCCCGGTAATCCGTATTTGTT (site ACATCTACTAA)”, for which the “recombinant UMI read abundance (log10)” value came out at 0.142.

In the case of “ACATCTACATGGACCGGTTTTCCCGGTAATCCGTATTTGTT (site ACATCTACTCA)”, the “recombinant UMI read abundance (log10)” value worked out at 0.0105.

“ACATCTACATGGACCGGTTTTCCCGGTAATCCGTATTTGTT (site ACATCTACTGA)”: the “recombinant UMI read abundance (log10)” value came to 0. The same measure for “ACATCTACATGGACCGGTTTTCCCGGTAATCCGTATTTGTT (site ACATCTACTTA)”: 0.0357; for “ACATGCACATGGACCGGTTTTCCCGGTAATCCGTATTTGTC (site ACATGCACTGA)”: 2.06; for “ACATGCGCATGGACCGGTTTTCCCGGTAATCCGTATTTGAT (site ACATGCGCTAT)”: 2.22.

As to “ACATGTACATGGACCGGTTTTCCCGGTAATCCGTATTTGTG (site ACATATACTCA)”, the “recombinant UMI read abundance (log10)” value was determined as 0.616. As for “ACATGTACATGGACCGGTTTTCCCGGTAATCCGTATTTGTG (site ACATCTACTCA)”, the figure is 0.00614; as for “ACATGTACATGGACCGGTTTTCCCGGTAATCCGTATTTGTG (site ACATGTACTCA)”, 1.07.

On to “ACATGTACATGGACCGGTTTTCCCGGTAATCCGTATTTGTG (site ACATTTACTCA)”, for which the “recombinant UMI read abundance (log10)” value is 0. With “ACATTGTCATGGACCGGTTTTCCCGGTAATCCGTATTTGCA (site ACAGTATCTTG)”, the “recombinant UMI read abundance (log10)” value is 1.37. As for “ACATTGTCATGGACCGGTTTTCCCGGTAATCCGTATTTGCA (site ACATTGTCTTG)”, the figure is 2.75.

For “ACCAAGTCATGGACCGGTTTTCCCGGTAATCCGTATTTGTG (site ACCAAGTCTCA)”, the “recombinant UMI read abundance (log10)” value came to 2.15.

For the sequence “ACCAATTCATGGACCGGTTTTCCCGGTAATCCGTATTTGCT (site ACCAATTCTAG)”, the “recombinant UMI read abundance (log10)” value amounted to 2.42. The same measure for “ACCACGACATGGACCGGTTTTCCCGGTAATCCGTATTTGAC (site ACCACGACTGT)”: 2.72. As for “ACCAGCCCATGGACCGGTTTTCCCGGTAATCCGTATTTGCT (site ACCAGCCCTAG)”, the figure is 0.0684; as for “ACCCCAACATGGACCGGTTTTCCCGGTAATCCGTATTTGAC (site ACCCCAACTGT)”, 2.49.

For the sequence “ACCCGTCCATGGACCGGTTTTCCCGGTAATCCGTATTTGAT (site AACCGTCCTAT)”, the “recombinant UMI read abundance (log10)” value turned out to be 0.00657. As to “ACCCGTCCATGGACCGGTTTTCCCGGTAATCCGTATTTGAT (site ACCCGTCCTAT)”, the “recombinant UMI read abundance (log10)” value came to 0.224. The same measure for “ACCCGTCCATGGACCGGTTTTCCCGGTAATCCGTATTTGAT (site AGCCGTCCTAT)”: 0.0209. As for “ACCCGTCCATGGACCGGTTTTCCCGGTAATCCGTATTTGAT (site ATCCGTCCTAT)”, the figure is 0.015; as for “ACCCGTCCATGGACCGGTTTTCCCGGTAATCCGTATTTGTA (site ACCCGTCCTTA)”, 0.613. As to “ACCGTCTCATGGACCGGTTTTCCCGGTAATCCGTATTTGCA (site ACAGTATCTTG)”, the “recombinant UMI read abundance (log10)” value was 0.902. As for “ACCGTCTCATGGACCGGTTTTCCCGGTAATCCGTATTTGCA (site ACCGTCTCTTG)”, the figure is 2.85; as for “ACCGTGACATGGACCGGTTTTCCCGGTAATCCGTATTTGCA (site ACCGTGACTTG)”, 2.4.
